# Experiment: photocatalytic hydrogen evolution rate (per 5 mg catalyst); higher = more photocatalytic H2 evolution; extreme values may be limits of the assay
# Settings: catalyst mass (mg): 5; Pt cocatalyst (wt%): 3; sacrificial medium: triethylamine/methanol/water 1:1:1
# 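Further: aromatic molecules in triethylamine/methanol/water with Pt photoreduced in situ, irradiated 3 h under a 1 sun AM 1.5G solar simulator (350–1000 nm), H2 quantified by headspace gas chromatography; listed molecule itself used as the photocatalyst at 5 mg per vial.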
row,SMILES,photocatalytic hydrogen evolution rate
1,N#CCC(=O)c1ccc(Br)cc1,0 µmol/h
2,c1ccc(-c2c3ccccc3c(-c3ccccc3)c3c(-c4ccccc4)c4ccccc4c(-c4ccccc4)c23)cc1,0.0539 µmol/h
3,Brc1ccnc(-c2cc(Br)ccn2)c1,0 µmol/h
4,OC1c2ccccc2-c2ccccc21,0 µmol/h
5,CCCc1ccc(C(=O)CC#N)cc1,0.0555 µmol/h
6,COC(=O)c1ccc2cc(C(=O)OC)ccc2c1,0.0623 µmol/h
7,Nc1c(F)c(F)c(N)c(F)c1F,0 µmol/h
8,c1ccc(N=C(Nc2ccccc2)Nc2ccccc2)cc1,0 µmol/h
9,O=Cc1sc(C=O)c(Br)c1Br,0.167 µmol/h
10,COC(=O)c1cc(C(=O)OC)cc(C(=O)OC)c1,0.0198 µmol/h
11,O=C1C(=O)c2cccnc2-c2ncccc21,0 µmol/h
12,C(#Cc1ccccc1)c1ccccc1,0 µmol/h
13,Brc1ccc(Br)nc1,0 µmol/h
14,Cc1cc(Br)c(C)cc1Br,0 µmol/h
15,Brc1ccc(-c2ccc(Br)s2)s1,0 µmol/h
16,O=Cc1ccc(C=O)c([N+](=O)[O-])c1,0 µmol/h
17,Cc1cncc(C)n1,0.0345 µmol/h
18,O=C1C=CC(=O)c2ccccc21,0 µmol/h
19,c1csc(-c2ccc(-c3cccs3)s2)c1,0 µmol/h
20,COC(=O)c1ccnc(-c2cc(C(=O)OC)ccn2)c1,0 µmol/h
21,Brc1ccc(Br)c2ccccc12,0 µmol/h
22,c1ccc(-c2cc(-c3ccccc3)nc(-c3ccccc3)c2)cc1,0 µmol/h
23,N#Cc1ccc(-c2ccc(C#N)c(O)c2)cc1,8.34 µmol/h
24,N#Cc1ccc(-c2ccc(C#N)cc2)cc1,0 µmol/h
25,CC1(C)OB(c2cc3ccc4cc(B5OC(C)(C)C(C)(C)O5)cc5ccc(c2)c3c45)OC1(C)C,0.0847 µmol/h
26,O=c1c2ccccc2n(-c2ccccc2)c2ccccc12,3.33 µmol/h

row,SMILES,photocatalytic hydrogen evolution rate
1,O=C(O)c1c(F)c(F)c(C(=O)O)c(F)c1F,0 µmol/h
2,COC(=O)/C=C/c1ccccc1,0 µmol/h
3,COc1ccc(OC)c(C=O)c1,10.9 µmol/h
4,N#CCc1ccccc1-c1ccccc1CC#N,0 µmol/h
5,O=Cc1ccnc(-c2cc(C=O)ccn2)c1,0 µmol/h
6,O=Cc1cc(O)cc(Cl)c1,0.000189 µmol/h
7,Brc1c2ccccc2c(-c2c3ccccc3c(Br)c3ccccc23)c2ccccc12,1.44 µmol/h
8,Nc1ccc(N)c(S(=O)(=O)O)c1,0 µmol/h
9,Brc1ccc(-c2ccc(-c3ccc(Br)cc3)cc2)cc1,0 µmol/h
10,O=C1c2cc(Br)ccc2-c2ccc(Br)cc21,0.214 µmol/h
11,N#Cc1ccc(F)cc1,0 µmol/h
12,NNC(=O)COc1ccc(Br)cc1Br,0 µmol/h
13,c1ccc(-c2nc3ccccc3[nH]2)cc1,0 µmol/h
14,Nc1c(Br)cnc(Br)c1N,0 µmol/h
15,N#Cc1ccc(C(=O)c2ccc(C#N)cc2)cc1,4.66 µmol/h
16,N#Cc1cccc(-c2ccc(N)cc2)c1,0 µmol/h
17,N#Cc1cncc(-c2cncc(C#N)c2)c1,0 µmol/h
18,N#Cc1cncc(Br)n1,0.0873 µmol/h
19,Nc1c(Br)ccc(Br)c1N,0 µmol/h
20,Cc1ccc(N(c2ccc(C)cc2)c2ccc(C=O)cc2)cc1,0.0671 µmol/h
21,N#Cc1ccc(C#N)c2ccccc12,0.0654 µmol/h
22,O=C1OC2(c3ccc(O)cc3Oc3cc(O)ccc32)c2ccccc21,20.2 µmol/h
23,NC(=O)c1ccc(B(O)O)cc1,0 µmol/h
24,c1ccc2c(c1)ccc1c3ccccc3ccc21,0 µmol/h
25,CC1(C)OB(c2ccc(N)cc2)OC1(C)C,0.0761 µmol/h
26,O=Cc1cc(Br)ccc1Br,0.957 µmol/h

row,SMILES,photocatalytic hydrogen evolution rate
1,Brc1cc(Br)c2ccc3c(Br)cc(Br)c4ccc1c2c43,0.383 µmol/h
2,Nc1cccc2ccccc12,0 µmol/h
3,O=Cc1ccc(O)cc1O,0.896 µmol/h
4,N#Cc1ccc(C#N)c(OC(F)(F)F)c1,0.153 µmol/h
5,O=C1c2ccccc2Cc2ccccc21,0 µmol/h
6,Nc1c(Br)cc2[nH]cnc2c1Br,0 µmol/h
7,c1ccc2c(c1)Cc1cc3c(cc1-2)Cc1ccccc1-3,0.136 µmol/h
8,O=c1cc(Br)[nH]c(Br)c1,0 µmol/h
9,N#Cc1ccc(Br)cc1F,0 µmol/h
10,N#Cc1cccc(C#N)n1,0 µmol/h
11,O=C1CCc2ccccc21,0.101 µmol/h
12,Brc1ccc2c(c1)C1(c3ccccc3-c3ccccc31)c1cc(Br)ccc1-2,0 µmol/h
13,O=Cc1ncc[nH]1,0.469 µmol/h
14,N#Cc1c(F)c(F)c(F)c(C#N)c1F,0.386 µmol/h
15,O=Cc1cccc(O)c1O,0 µmol/h
16,O=Cc1ccc(Cl)c(O)c1,0 µmol/h
17,N#CCc1ccc(C#N)cc1,0 µmol/h
18,c1cn[nH]c1,0 µmol/h
19,c1ccc2c(c1)c1ccccc1c1ccccc21,0.022 µmol/h
20,Cc1cc(-c2cc(C)c(N)c(C)c2)cc(C)c1N,0 µmol/h
21,O=C(C(=O)c1ccc(C(=O)C(=O)c2ccccc2)cc1)c1ccccc1,0.00597 µmol/h
22,CC(=O)c1ccc(N)cc1,0.229 µmol/h
23,N#Cc1ccc(-c2ccc(N)nc2)cc1,0.0826 µmol/h
24,N#Cc1c(F)c(F)c(Br)c(F)c1F,0 µmol/h
25,N#Cc1ccc(C=O)cc1,0.136 µmol/h
26,O=Cc1ccc(-n2ccnc2)cc1,1.5 µmol/h

row,SMILES,photocatalytic hydrogen evolution rate
1,CC(O)c1ccc2ccccc2c1 (configuration not stated),0 µmol/h
2,O=Cc1cc(F)cc(Br)c1,0.0795 µmol/h
3,c1ccc(-c2cc(-c3ccccc3)cc(-c3ccccc3)c2)cc1,0.0457 µmol/h
4,O=C1C(=O)c2cc(Br)ccc2-c2ccc(Br)cc21,0 µmol/h
5,N#Cc1cc(O)cc(C#N)c1,2.14 µmol/h
6,N#Cc1ccncc1Br,0 µmol/h
7,OCc1ccc(-c2ccc(CO)cc2)cc1,0.00977 µmol/h
8,O=Cc1cc(Br)cc(C=O)c1,0.831 µmol/h
9,CCn1c2ccc(Br)cc2c2cc(Br)ccc21,1.25 µmol/h
10,O=C1c2ccccc2C(=O)c2c(Cl)cccc21,0 µmol/h
11,N#Cc1cc(C#N)ncn1,0 µmol/h
12,N#CCc1ccc(C=O)cc1,4.22 µmol/h
13,Oc1ccc2ccccc2c1-c1c(O)ccc2ccccc12,0 µmol/h
14,N#Cc1cccnc1Br,0 µmol/h
15,NC(c1ccccc1)(c1ccccc1)c1ccccc1,0 µmol/h
16,O=C1Cc2cc(Br)cc(Br)c2N1,0 µmol/h
17,c1ccc(-c2ccc(-c3nc(-c4ccc(-c5ccccc5)cc4)nc(-c4ccc(-c5ccccc5)cc4)n3)cc2)cc1,0.103 µmol/h
18,Brc1sc(Br)c(Br)c1Br,0 µmol/h
19,O=Cc1ccc2ccc3cccc4ccc1c2c34,10.3 µmol/h
20,O=C(O)c1c(C(=O)O)c(C(=O)O)c(C(=O)O)c(C(=O)O)c1C(=O)O,0 µmol/h
21,N#Cc1cc(Br)cs1,0 µmol/h
22,N#Cc1cc2ccccc2cc1C#N,0.401 µmol/h
23,O=C(O)c1ccc(-c2ccc(-c3cc(-c4ccc(-c5ccc(C(=O)O)cc5)cc4)cc(-c4ccc(-c5ccc(C(=O)O)cc5)cc4)c3)cc2)cc1,0 µmol/h
24,c1ccc2c(c1)[nH]c1ccccc12,0 µmol/h
25,N#Cc1c(Cl)c(Cl)c(C#N)c(Cl)c1Cl,1.44 µmol/h
26,c1ccc2c(c1)ccc1ccccc12,0.057 µmol/h

row,SMILES,photocatalytic hydrogen evolution rate
1,CN(C)c1ccncc1,0 µmol/h
2,O=C1C(O)=C(O)C(=O)C(O)=C1O,0 µmol/h
3,C1=Cc2cccc3cccc1c23,0 µmol/h
4,c1cnc2c(c1)ccc1cccnc12,0.478 µmol/h
5,Nc1c(F)c(F)c(-c2c(F)c(F)c(N)c(F)c2F)c(F)c1F,0 µmol/h
6,O=Cc1cccc(O)c1,0 µmol/h
7,Oc1c(Br)cc(Br)c(O)c1Br,0 µmol/h
8,O=C(c1ccccc1)c1ccncc1,2.41 µmol/h
9,CC(=O)c1ccc([N+](=O)[O-])cc1,0 µmol/h
10,Cc1cc(N)ccc1-c1ccc(N)cc1C,0.055 µmol/h
11,O=Cc1ccc(O)c(O)c1O,0 µmol/h
12,Brc1ccc(N(c2ccc(Br)cc2)c2ccc(Br)cc2)cc1,0.922 µmol/h
13,c1ccc2c(c1)C1c3ccccc3C2c2ccccc21,0.0408 µmol/h
14,OCc1cccc2cc3cccc(CO)c3cc12,0.00242 µmol/h
15,Nc1ccc(C(=O)O)cc1,0.059 µmol/h
16,Brc1cccc(-c2cccc(Br)n2)n1,0 µmol/h
17,O=C1c2ccc(Br)cc2C(=O)c2ccc(Br)cc21,0 µmol/h
18,Brc1ccc2cc(Br)ccc2c1,0 µmol/h
19,OB(O)c1cccc(B(O)O)c1,0 µmol/h
20,N#Cc1cc(F)c(F)cc1F,0.0582 µmol/h
21,O=C(O)[C@@H]1CCC(=O)N1C(=O)OCc1ccccc1,0 µmol/h
22,N#Cc1ccc(C=O)s1,0.0384 µmol/h
23,Cc1ccc(C)c(N=Nc2cc(C)c(N=Nc3c(O)ccc4ccccc34)cc2C)c1,0 µmol/h

# Reference: the supplement of paper PMC8372320
